From ChEMBL document CHEMBL5303304, “EUbOPEN Chemogenomics Library - IncuCyte” (2023)

How the values were obtained:
Format in all cases: toxicity, cell-based
Fibroblast = assay: Incucyte cell viability with human fibroblast; details: 10 µM, compound concentration 10 uM
HEK-293T = assay: Incucyte cell viability with HEK293T; details: human, 10 µM, compound concentration 10 uM
U2OS = assay: Incucyte cell viability with U2OS; details: human, 10 µM, compound concentration 10 uM
Also: unitless GR value; below 1 slowed growth and below 0 cell loss.

SMILES | Growth Rate (Fibroblast; 0 h, replicate number 2) | Growth Rate (Fibroblast; 12 h, replicate number 1) | Growth Rate (HEK-293T; 0 h, replicate number 1) | Growth Rate (HEK-293T; 6 h, replicate number 1) | Growth Rate (HEK-293T; 6 h, replicate number 2) | Growth Rate (HEK-293T; 12 h, replicate number 1) | Growth Rate (HEK-293T; 12 h, replicate number 2) | Growth Rate (HEK-293T; 18 h, replicate number 1) | Growth Rate (HEK-293T; 18 h, replicate number 2) | Growth Rate (HEK-293T; 24 h, replicate number 1) | Growth Rate (HEK-293T; 24 h, replicate number 2) | Growth Rate (U2OS; 0 h, replicate number 1) | Growth Rate (U2OS; 0 h, replicate number 2) | Growth Rate (U2OS; 6 h, replicate number 2) | Growth Rate (U2OS; 12 h, replicate number 2) | Growth Rate (U2OS; 18 h, replicate number 2) | Growth Rate (U2OS; 24 h, replicate number 1) | Growth Rate (U2OS; 24 h, replicate number 2) | Growth Rate (Fibroblast; 6 h, replicate number 2) | Growth Rate (Fibroblast; 18 h, replicate number 2) | further results
Cc1cc(C(C#N)c2ccc(Cl)cc2)c(Cl)cc1NC(=O)c1cc(I)cc(I)c1O (configuration not stated) [CLOSANTEL] | -0.74 | -1 | 0.61 | 0.13 | 0.49 | 0.27 | 0.84 | 0.5 | 0.87 | 0.89 | 0.91 | 0.36 | -1 | 0.91 | 0.94 | 0.87 | 0.98 | 0.99 |  |  | Growth Rate (HEK-293T; 0 h, replicate number 2): 0.76
Cc1noc(C)c1-c1cnc2c(-c3ccc(C(=O)O)cc3)cn([C@@H](C)c3ccccn3)c2c1 [PLX-51107] | -0.82 | -0.99 | 0.25 |  |  |  | 0.89 |  | 0.62 | 0.93 | 0.48 | -0.72 | -0.91 |  |  |  | 0.93 | 1 | -0.59 | 0.36 | Growth Rate (Fibroblast; 0 h, replicate number 1): -0.53; Growth Rate (Fibroblast; 12 h, replicate number 2): 0.35; Growth Rate (Fibroblast; 18 h, replicate number 1): -0.39; Growth Rate (Fibroblast; 24 h, replicate number 1): -0.1; Growth Rate (Fibroblast; 24 h, replicate number 2): 0.49; Growth Rate (U2OS; 6 h, replicate number 1): 0.16; Growth Rate (U2OS; 12 h, replicate number 1): 0.94
CCS(=O)(=O)c1ccc(OC)c(Nc2ncc(-c3cccc(F)c3)o2)c1 [GW621970X] | -0.51 | 0.4 |  | -0.48 | -0.44 | -0.12 | 0.2 | 0.22 | 0.63 | 0.43 | 0.8 |  |  | 0.74 | 0.84 | 0.86 | 0.94 | 0.77 | 0.01 | 0.7 | Growth Rate (Fibroblast; 6 h, replicate number 1): -0.04; Growth Rate (Fibroblast; 12 h, replicate number 2): 0.24; Growth Rate (Fibroblast; 18 h, replicate number 1): 0.72; Growth Rate (Fibroblast; 24 h, replicate number 1): 0.73; Growth Rate (Fibroblast; 24 h, replicate number 2): 0.99; Growth Rate (U2OS; 18 h, replicate number 1): 0.79
CC1=C(C(=O)OCCO)[C@@H](c2ccc(C#N)cc2)NC(=O)N1c1cccc(C(F)(F)F)c1 | -0.51 |  |  | 0.61 |  | 0.73 | 0.75 | 0.68 | 0.71 | 0.67 | 0.97 |  | 0.55 |  |  |  |  |  |  | 0.92 | 
